One assay concerns the target T1, PLK1 (Homo sapiens, UniProt P53350).
T1 construct: endogenous in cells; host or cells: HeLa cells stably expressing LgBit, with CRISPR/Cas9 knock-in of HiBit at the endogenous PLK1 locus
The assay can be described thus: Luciferase assay for PLK1 in HeLa LgBit (Plk1-HiBit KI) cell line. Format: cell-based. To be noted: 300 nM compound, luminescence after 9 hours. The protocol:
2. Luciferase Assay for PLK1
(1) Preparation and Culture of HeLa LgBit (Plk1-HiBit KI) Cell Line
A HeLa cell line in which the LgBit vector was transfected and expressed stably was prepared. Then, after constructing gRNA and donor to express the HiBit amino acid sequence behind the C-terminal of the Plk1 gene, which was inherent in the cell, it was inserted into the cell together with a vector capable of expressing CRISPR/Cas9. Only the cells in which the insertion was completed and knock-in had progressed were selected, sub-cultured and used.
(2) Treatment of Compounds of the Present Invention and Method of Luciferase Assay
In the case of HeLa LgBit (Plk1-HiBit KI), the compounds were treated after being released after thymidine block, and the process was as follows. Thymidine (Sigma-Aldrich Cat. No. T9250-5G) was completely dissolved in DW and used in the experiment. For thymidine block, the products were treated with 2 mM of thymidine and then incubated for 24 hours. For release and chemical treatment, the medium was suctioned and washed with 1×PBS. TrypLE™ was added and incubated in 37° C. CO2 incubator for 5 min. Cells neutralized by adding complete media were counted through a counter. For each well of a 96-well culture plate (SPL), 3.3×10^4 cells and a total medium volume of 150 μL were seeded and incubated in a CO2 incubator.
Each cell line was incubated in a CO2 incubator for 18 hours, and Endurazine was added to each well to make up 4% of the total volume. After adding the compound of the present invention in a 96-well white plate (SPL) to a concentration of 300 nM, the wavelength of the plate reader (BMG Labtech, CLARIOstar Plus) was set to […], and then the luminescence was tracked in real time.
The results are shown in Table 2 below and FIGS. 1 and 2.
In Table 2, Activity represents the ratio of the luminescence value of each Exemplary Compound treatment group to DMSO treatment group (+++: <0.3, ++ <0.6, + <0.7).
(With HiBiT, luminescence reflects the tagged protein that the partner subunit can reach.)

The test system of the next assay is H526 cell line. The experiment in a line: Cell viability assay for H526 cell line. Format: cell-based. To be noted: Homo sapiens, NCI-H526, 120 h; H526 cells, 5 days, EZ-Cytox, 0.46-3000 nM. As to the method: 3. Cell Viability Assay for H526 Cell Line
(1) Culture of NCI-H526 Cell Line
(2) Treatment of Compounds of the Present Invention and Method of Cell Viability Assay
After treating the compound to each well to make the total volume of 200 μL, it was cultured in a CO2 incubator (Thermo Fisher Science, Cat. No. 4111) for 5 days.
The absorbance of the completely cultured sample was measured by setting the wavelength of a plate reader (BMG Labtech, CLARIOstar Plus) to […], and was measured after shaking for 3 minutes in a plate reader before measurement.
In Table 3, Activity represents IC50 value of each Exemplary Compound treatment group to H526 cell line (A: <30 nM, B: <50 nM, C: <100 nM, D: <200 nM, E: <400 nM).

Molecules are shown by their SMILES.

For orientation: IC50 means the concentration that gives 50% inhibition. Lower therefore signals inhibition by little substance.

T1 sequence (P53350 whole entry): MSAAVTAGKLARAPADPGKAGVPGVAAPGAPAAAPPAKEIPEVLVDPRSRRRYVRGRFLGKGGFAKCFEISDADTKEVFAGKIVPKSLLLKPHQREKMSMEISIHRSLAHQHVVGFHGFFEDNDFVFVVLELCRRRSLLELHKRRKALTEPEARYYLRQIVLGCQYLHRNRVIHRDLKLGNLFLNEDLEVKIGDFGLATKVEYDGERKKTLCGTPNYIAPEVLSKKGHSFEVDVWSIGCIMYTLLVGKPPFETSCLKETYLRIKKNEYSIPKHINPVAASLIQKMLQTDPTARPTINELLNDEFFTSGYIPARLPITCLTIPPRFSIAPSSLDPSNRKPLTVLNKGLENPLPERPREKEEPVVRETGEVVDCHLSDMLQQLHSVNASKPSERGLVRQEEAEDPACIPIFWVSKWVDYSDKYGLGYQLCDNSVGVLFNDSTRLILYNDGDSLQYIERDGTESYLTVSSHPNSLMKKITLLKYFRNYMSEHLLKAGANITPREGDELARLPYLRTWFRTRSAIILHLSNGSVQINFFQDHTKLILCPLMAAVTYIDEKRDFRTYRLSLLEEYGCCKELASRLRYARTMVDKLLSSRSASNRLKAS

Turning to `COc1cc(C(=O)NC2CCC(N(C)CC3CCN(c4ccc(C5CCC(=O)NC5=O)cc4F)CC3)CC2)ccc1Nc1ncc2c(n1)N(C(C)C)CC(F)(F)C(=O)N2C` (stereo not drawn) [Compound 8, 4-((7,7-difluoro-9-isopropyl-5-methyl-6-oxo-6,7,8,9-tetrahydro-5H-pyrimido[4,5-b][1,4]diazepin-2-yl)amino)-N-((1s,4s)-4-(((1-(4-(2,6-dioxopiperidin-3-yl)-2-fluorophenyl)piperidin-4-yl)methyl)(methyl)amino)cyclohexyl)-3-methoxybenzamide], the “Activity: ratio of the luminescence value of each Exemplary Compound treatment group to DMSO treatment group” value (from here on “Activity: ratio”) at PLK1 is reported as “++ (++ <0.6)”.
In the assay with H526 cell line, `COc1cc(C(=O)NC2CC3(CCN(CC4CCN(c5ccc(C6CCC(=O)NC6=O)cc5F)CC4)CC3)C2)ccc1Nc1ncc2c(n1)N1CCC[C@@H]1CC(=O)N2C` (stereo partly drawn) [Compound 24, N-(7-((1-(4-(2,6-dioxopiperidin-3-yl)-2-fluorophenyl)piperidin-4-yl)methyl)-7-azaspiro[3.5]nonan-2-yl)-3-methoxy-4-(((R)-5-methyl-6-oxo-6,7,7a,8,9,10-hexahydro-5H-pyrimido[5,4-b]pyrrolo[1,2-d][1,4]diazepin-2-yl)amino)benzamide] registered an IC50 of less than 100 nM. Moreover, the “Activity: ratio” value on PLK1 is reported as “++ (++ <0.6)”.
On the same counts, the results for `COc1cc(C(=O)NC2CC3(CCN(CCC4(C)CCN(c5ccc(C6CCC(=O)NC6=O)cc5F)C4)CC3)C2)ccc1Nc1ncc2c(n1)N(C(C)C)CC(F)(F)C(=O)N2C` (stereo not drawn) [Compound 26, 4-((7,7-difluoro-9-isopropyl-5-methyl-6-oxo-6,7,8,9-tetrahydro-5H-pyrimido[4,5-b][1,4]diazepin-2-yl)amino)-N-(7-(2-(1-(4-(2,6-dioxopiperidin-3-yl)-2-fluorophenyl)-3-methylpyrrolidin-3-yl)ethyl)-7-azaspiro[3.5]nonan-2-yl)-3-methoxybenzamide] are less than 30 nM and “++ (++ <0.6)”.
Compound `COc1cc(C(=O)NC2CC3(CCN(C[C@H]4C[C@@H]5C[C@H]4CN5c4ccc(C5CCC(=O)NC5=O)cc4F)CC3)C2)ccc1Nc1ncc2c(n1)N(C(C)C)CC(F)(F)C(=O)N2C` (stereo partly drawn) [Compound 27, 4-((7,7-difluoro-9-isopropyl-5-methyl-6-oxo-6,7,8,9-tetrahydro-5H-pyrimido[4,5-b][1,4]diazepin-2-yl)amino)-N-(7-(((1R,4R,5S)-2-(4-(2,6-dioxopiperidin-3-yl)-2-fluorophenyl)-2-azabicyclo[2.2.1]heptan-5-yl)methyl)-7-azaspiro[3.5]nonan-2-yl)-3-methoxybenzamide] returned an IC50 in the assay on H526 cell line of less than 30 nM. Also, the “Activity: ratio” value at PLK1 is listed as “++ (++ <0.6)”.
`COc1cc(C(=O)NC2CC3(CCN(CC4CCN(c5ccc(C6CCC(=O)NC6=O)cc5F)C(=O)C4)CC3)C2)ccc1Nc1ncc2c(n1)N(C(C)C)CC(F)(F)C(=O)N2C` (stereo not drawn) [Compound 28, 4-((7,7-difluoro-9-isopropyl-5-methyl-6-oxo-6,7,8,9-tetrahydro-5H-pyrimido[4,5-b][1,4]diazepin-2-yl)amino)-N-(7-((1-(4-(2,6-dioxopiperidin-3-yl)-2-fluorophenyl)-2-oxopiperidin-4-yl)methyl)-7-azaspiro[3.5]nonan-2-yl)-3-methoxybenzamide] displayed an IC50 in the assay on H526 cell line of less than 30 nM. Further, the “Activity: ratio” value at PLK1 is listed as “++ (++ <0.6)”.
The compound `COc1cc(C(=O)NC2CC3(CCN(CCC4CCN(c5ccc(C6CCC(=O)NC6=O)cc5F)CC4)CC3)C2)ccc1Nc1ncc2c(n1)N(C(C)C)CC(F)(F)C(=O)N2C` (stereo not drawn) [Compound 29, 4-((7,7-difluoro-9-isopropyl-5-methyl-6-oxo-6,7,8,9-tetrahydro-5H-pyrimido[4,5-b][1,4]diazepin-2-yl)amino)-N-(7-(2-(1-(4-(2,6-dioxopiperidin-3-yl)-2-fluorophenyl)piperidin-4-yl)ethyl)-7-azaspiro[3.5]nonan-2-yl)-3-methoxybenzamide] displayed an IC50 in the assay with H526 cell line of less than 30 nM. Besides, at PLK1, the “Activity: ratio” value was “++ (++ <0.6)”.
The matching figures for `COc1cc(C(=O)NCC2CC3(CCN(CC4CCN(c5ccc(C6CCC(=O)NC6=O)cc5F)CC4)CC3)C2)ccc1Nc1ncc2c(n1)N(C(C)C)CC(F)(F)C(=O)N2C` (stereo not drawn) [Compound 30, 4-((7,7-difluoro-9-isopropyl-5-methyl-6-oxo-6,7,8,9-tetrahydro-5H-pyrimido[4,5-b][1,4]diazepin-2-yl)amino)-N-((7-((1-(4-(2,6-dioxopiperidin-3-yl)-2-fluorophenyl)piperidin-4-yl)methyl)-7-azaspiro[3.5]nonan-2-yl)methyl)-3-methoxybenzamide]: less than 100 nM and “+++ (+++: <0.3)”.
For `COc1cc(C(=O)NC2CC3(CCN(CC4CCN(Cc5ccc(C6CCC(=O)NC6=O)cc5F)CC4)CC3)C2)ccc1Nc1ncc2c(n1)N(C(C)C)CC(F)(F)C(=O)N2C` (stereo not drawn) [Compound 34, 4-((7,7-difluoro-9-isopropyl-5-methyl-6-oxo-6,7,8,9-tetrahydro-5H-pyrimido[4,5-b][1,4]diazepin-2-yl)amino)-N-(7-((1-(4-(2,6-dioxopiperidin-3-yl)-2-fluorobenzyl)piperidin-4-yl)methyl)-7-azaspiro[3.5]nonan-2-yl)-3-methoxybenzamide], on PLK1, the “Activity: ratio” value is given as “++ (++ <0.6)”.
As to `COc1cc(C(=O)NC2CC3(CCN(CC4CCN(c5ccc(C6CCC(=O)NC6=O)c(OC)c5)CC4)CC3)C2)ccc1Nc1ncc2c(n1)N(C(C)C)CC(F)(F)C(=O)N2C` (stereo not drawn) [Compound 37, 4-((7,7-difluoro-9-isopropyl-5-methyl-6-oxo-6,7,8,9-tetrahydro-5H-pyrimido[4,5-b][1,4]diazepin-2-yl)amino)-N-(7-((1-(4-(2,6-dioxopiperidin-3-yl)-3-methoxyphenyl)piperidin-4-yl)methyl)-7-azaspiro[3.5]nonan-2-yl)-3-methoxybenzamide], the “Activity: ratio” value at PLK1 was “++ (++ <0.6)”.
As for `COc1cc(C(=O)NC2CCC(CCN3CCN(c4ccc(C5CCC(=O)NC5=O)cc4F)CC3)CC2)ccc1Nc1ncc2c(n1)N(C(C)C)CC(F)(F)C(=O)N2C` (stereo not drawn) [Compound 41, 4-((7,7-difluoro-9-isopropyl-5-methyl-6-oxo-6,7,8,9-tetrahydro-5H-pyrimido[4,5-b][1,4]diazepin-2-yl)amino)-N-((1s,4s)-4-(2-(4-(4-(2,6-dioxopiperidin-3-yl)-2-fluorophenyl)piperazin-1-yl)ethyl)cyclohexyl)-3-methoxybenzamide], the “Activity: ratio” value on PLK1 is recorded as “++ (++ <0.6)”.
Same read-out and setting: with `COc1cc(C(=O)NN2CCC(CN3CCN(C(=O)c4ccc(OC)c(N5CCC(=O)NC5=O)c4)CC3)CC2)ccc1Nc1ncc2c(n1)N(C(C)C)CC(F)(F)C(=O)N2C` [Compound 51, 4-((7,7-difluoro-9-isopropyl-5-methyl-6-oxo-6,7,8,9-tetrahydro-5H-pyrimido[4,5-b][1,4]diazepin-2-yl)amino)-N-(4-((4-(3-(2,4-dioxotetrahydropyrimidin-1(2H)-yl)-4-methoxybenzoyl)piperazin-1-yl)methyl)piperidin-1-yl)-3-methoxybenzamide] the entry was “+ (+ <0.7)”; with `COc1cc(C(=O)NC2CCN(C3CCN(c4ccc(C5CCC(=O)NC5=O)cc4F)C3)CC2)ccc1Nc1ncc2c(n1)N(C(C)C)CC(F)(F)C(=O)N2C` (stereo not drawn) [Compound 59, 4-((7,7-difluoro-9-isopropyl-5-methyl-6-oxo-6,7,8,9-tetrahydro-5H-pyrimido[4,5-b][1,4]diazepin-2-yl)amino)-N-(1-(1-(4-(2,6-dioxopiperidin-3-yl)-2-fluorophenyl)pyrrolidin-3-yl)piperidin-4-yl)-3-methoxybenzamide], “++ (++ <0.6)”.

(Values after US11939334B2, “Substituted pyrimido[4,5-b][1,4]diazepines as PLK1 degradation inducers” (UPPTHERA, INC., priority 2021, dated 2024).)
